Measurements published in patent publication US20260041679A1, “METHOD OF TREATING HYPERTENSION WITH THE ALDOSTERONE SYNTHASE INHIBITOR BAXDROSTAT” (CINCOR PHARMA, INC., priority 2022, published 2026).
Where “and” joins values, the source holds several entries; their conditions need not be identical. Equal values may be shown once. Read-outs that look alike come from different tables or passages of the source.

Key:
[1] = Single ascending dose study, pharmacokinetics (Example 1); type: in vivo
Description: Eighty-eight healthy male volunteers completed the first-in-human study of baxdrostat. In part 1 of the trial, subjects received a single oral dose of baxdrostat ranging from 1 to 360 mg in order to evaluate safety, tolerability, PK, and pharmacodynamics (PD). Part 2 evaluated the PK of a single 3 mg intravenous dose of baxdrostat.

[2] = Safety in hepatic function study (Example 5); type: in vivo, human
Description: Subjects with moderate hepatic impairment (Child-Pugh Category B, n=10) and healthy controls (n=10) were each given a single 10 mg oral dose of baxdrostat. Subjects were matched by age, sex, body mass index, race, and smoking status. Serial blood and urine samples were collected to determine plasma and urine concentrations of baxdrostat for 7 days postdose. Safety was assessed based on adverse events, clinical laboratory evaluations, vital signs, electrocardiogram and physical examinations.

[3] = Plasma PK of baxdrostat and baxdrostat-M in the metformin crossover study (Example 6A); type: in vivo, human; details: single 10-mg dose of baxdrostat
Description: This study was designed as a phase 1, randomized, open-label, 2-period, crossover trial. Each subject participated in a screening period of up to 26 days followed by 2 inpatient treatment periods and a follow-up phone call. […] Plasma samples were extracted by protein precipitation with methanol, followed by analysis by LC-MS/MS with ESI(+) and MRM. Reversed-phase chromatographic separation with a mobile phase gradient of 20% to 90% was utilized, and total run time was approximately 5 minutes. […] PK parameters were calculated using noncompartmental methods with SAS software, version 9.4 (SAS Institute). […] Tmax; […] AUC0-t; AUC0-inf, AUC0-inf extrapolated; λz; and t1/2. Plasma AUC0-72 was assessed only for baxdrostat and baxdrostat-M. […] Urine PK parameters included Ae, renal clearance (calculated as Ae/AUC), and the fraction of dose excreted renally.

patients with rHTN = assay: Study 121: seated blood pressure in patients with resistant hypertension (Example 8); type: in vivo, human; details: for DBP decrease: after 12 weeks
From the text: This study was a randomized, double-blind, placebo-controlled study to evaluate the efficacy and safety of baxdrostat in patients with rHTN. Patients with rHTN were defined as being on a stable regimen of ≥3 antihypertensive agents, one of which is a diuretic with a mean seated blood pressure (BP)≥130/80 mmHg. […] The secondary objectives were to evaluate the change from baseline in mean seated DBP with each of the selected dose strengths of baxdrostat compared to placebo and to evaluate the percentage of patients achieving a seated BP response<130/80 mmHg with each of the dose strengths of baxdrostat compared to placebo after 12 weeks of treatment. […] The study was planned to enroll 348 patients.
The primary endpoint was the placebo-adjusted change from baseline to week 12 of the mean office SBP. The secondary endpoints included the placebo-adjusted change from baseline to week 12 in seated office DBP, and the percentage of patients achieving a seated BP response<130/80 mmHg with each of the selected dose strengths of baxdrostat compared to placebo after 12 weeks of treatment for rHTN.
The point estimates for the main treatment effect and for the secondary endpoints were generated by mixed model analyses of covariance that included responder status as a fixed effect. […] The change from baseline in mean seated SBP will be analyzed using a mixed model for repeated measures (MMRM) model. The analysis includes fixed effects for treatment, visit, and treatment-by-visit interaction, along with covariates of the baseline mean seated SBP and baseline glomerular filtration rate. The restricted maximum likelihood estimation (REML) approach was used with an unstructured covariance matrix.

CCC(=O)N[C@@H]1CCCc2c(-c3ccc4c(c3)CCC(=O)N4C)cncc21 [baxdrostat, (R)—N-(4-(1-methyl-2-oxo-1,2,3,4-tetrahydroquinolin-6-yl)-5,6,7,8-tetrahydroisoquinolin-8-yl) propionamide]
half-life ([1]; human, plasma, oral, single dose, healthy male volunteers): 29 h
plasma levels of baxdrostat vs dose ([1]; single oral dose 1 to 360 mg): increased in a dose-proportional manner
clinical laboratory evaluations, vital signs, electrocardiograms, physical examinations ([2]; both groups): No clinically significant changes
TEAE deemed related to baxdrostat ([2]; normal hepatic function group): One TEAE of headache with moderate severity
deaths, serious TEAEs, study discontinuations ([2]; single 10 mg, both hepatic function groups): no deaths, serious treatment-emergent adverse events (TEAE), or study discontinuations
AUC% extrapolated ([3]; human): 8.36%
AUC(0-t) ([3]; human, read-out: AUC0-24, Mean): 1660 ng·h/mL
AUC(0-t) ([3]; human, read-out: AUC0-72, GM): 2790 ng·h/mL
AUC(0-t) ([3]; human, read-out: AUC0-72, Mean): 2870 ng·h/mL
AUC(0-inf) ([3]; human, read-out: AUC0-inf, GM): 2920 ng·h/mL
AUC(0-inf) ([3]; human, read-out: AUC0-inf, Mean): 3030 ng·h/mL
Cmax ([3]; human, read-out: Cmax, GM): 117 ng/mL
Cmax ([3]; human, read-out: Cmax, Mean): 119 ng/mL
Tmax ([3]; human, read-out: Tmax, GM): 1.54 h
Tmax ([3]; human, read-out: Tmax, Mean): 1.68 h
AUC0-24, GM [3]: 1637.461 ng·h/mL
λz, GM [3]: 0.032 h⁻¹
λz, Mean [3]: 0.033 h⁻¹
DBP, LS mean change (SE) (patients with rHTN; 0.5 mg QD, 12 weeks): −8.6 (1.23) mmHg
DBP, LS mean difference vs placebo (SE) (patients with rHTN; 0.5 mg QD, 12 weeks): 0.5 (1.74) mmHg
SBP, LS mean difference vs placebo (SE) (patients with rHTN; 0.5 mg QD, 12 weeks): −2.7 (2.68) mmHg
SBP, LS mean change (SE) (patients with rHTN; 0.5 mg QD, 12 weeks, mITT): −12.1 (1.91) mmHg
treatment effect on SBP vs placebo (patients with rHTN; 0.5 mg, 12 weeks): modestly greater than that of placebo, but this difference did not reach statistical significance
DBP decrease (patients with rHTN; 0.5 mg): 8.6 mmHg
DBP, LS mean change (SE) (patients with rHTN; 1 mg QD, 12 weeks): −11.8 (1.26) mmHg
DBP, LS mean difference vs placebo (SE) (patients with rHTN; 1 mg QD, 12 weeks): −2.7 (1.75) mmHg
SBP, LS mean difference vs placebo (SE) (patients with rHTN; 1 mg QD, 12 weeks): −8.1 (2.7) mmHg and −8.1 (2.72) mmHg
SBP, LS mean change (SE) (patients with rHTN; 1 mg QD, 12 weeks, mITT): −17.5 (1.95) mmHg
placebo-adjusted SBP decline (patients with rHTN; 1 mg, 12 weeks): 8.1 mmHg
DBP decrease (patients with rHTN; 1 mg): 11.8 mmHg
DBP, LS mean change (SE) (patients with rHTN; 2 mg QD, 12 weeks): −14.3 (1.31) mmHg
DBP, LS mean difference vs placebo (SE) (patients with rHTN; 2 mg QD, 12 weeks): −5.2 (1.79) mmHg
SBP, LS mean difference vs placebo (SE) (patients with rHTN; 2 mg QD, 12 weeks): −11.0 (2.78) mmHg
SBP, LS mean change (SE) (patients with rHTN; 2 mg QD, 12 weeks, mITT): −20.3 (2.05) mmHg
DBP lowered compared to the placebo group (patients with rHTN; 2 mg, 12 weeks): 5.2 mmHg
model adjusted, placebo-corrected decline in SBP (patients with rHTN; 2 mg, 12 weeks): 11.0 mmHg
reduction in SBP (patients with rHTN; 2 mg, 12 weeks): 20.3 mmHg
DBP decrease (patients with rHTN; 2 mg): 14.3 mmHg
model adjusted and placebo-corrected change from baseline in SBP (patients with rHTN; 2 mg, intent to treat (ITT) analysis set): −11 mmHg
model adjusted and placebo-corrected change from baseline in SBP (patients with rHTN; 2 mg, per protocol analysis set): −11.1 mmHg
time course of SBP decrease (patients with rHTN; 12 weeks of treatment): rapid after treatment started and sustained throughout the 12 weeks of treatment
SBP, LS mean change (SE) (patients with rHTN; Female, 0.5 mg): −10.2 (2.77)
SBP, LS mean difference (SE) (patients with rHTN; Female, 0.5 mg vs placebo): 5.1 (4.12)
SBP, LS mean change (SE) (patients with rHTN; Female, 1 mg): −17.8 (2.74)
SBP, LS mean difference (SE) (patients with rHTN; Female, 1 mg vs placebo): −2.5 (4.09)
SBP, LS mean change (SE) (patients with rHTN; Female, 2 mg): −18.2 (3.01)
SBP, LS mean difference (SE) (patients with rHTN; Female, 2 mg vs placebo): −2.9 (4.27)
SBP, LS mean change (SE) (patients with rHTN; Hispanic/Latino Female, 0.5 mg): −15.9 (4.27)
SBP, LS mean difference (SE) (patients with rHTN; Hispanic/Latino Female, 0.5 mg vs placebo): 2.2 (5.93)
SBP, LS mean change (SE) (patients with rHTN; Hispanic/Latino Female, 1 mg): −11.5 (4.80)
SBP, LS mean difference (SE) (patients with rHTN; Hispanic/Latino Female, 1 mg vs placebo): 6.6 (6.33)
SBP, LS mean change (SE) (patients with rHTN; Hispanic/Latino Female, 2 mg): −19.4 (3.59)
SBP, LS mean difference (SE) (patients with rHTN; Hispanic/Latino Female, 2 mg vs placebo): −1.3 (5.46)
SBP, LS mean change (SE) (patients with rHTN; Hispanic/Latino, 0.5 mg): −13.3 (2.72)
SBP, LS mean difference (SE) (patients with rHTN; Hispanic/Latino, 0.5 mg vs placebo): −1.9 (3.94)
SBP, LS mean change (SE) (patients with rHTN; Hispanic/Latino, 1 mg): −16.7 (3.43)
SBP, LS mean difference (SE) (patients with rHTN; Hispanic/Latino, 1 mg vs placebo): −5.4 (4.46)
SBP, LS mean change (SE) (patients with rHTN; Hispanic/Latino, 2 mg): −21.8 (2.95)
SBP, LS mean difference (SE) (patients with rHTN; Hispanic/Latino, 2 mg vs placebo): −10.5 (4.10)
SBP, LS mean change (SE) (patients with rHTN; Male, 0.5 mg): −13.7 (2.59)
SBP, LS mean difference (SE) (patients with rHTN; Male, 0.5 mg vs placebo): −8.0 (3.53)
SBP, LS mean change (SE) (patients with rHTN; Male, 1 mg): −17.4 (2.76)
SBP, LS mean difference (SE) (patients with rHTN; Male, 1 mg vs placebo): −11.7 (3.66)
SBP, LS mean change (SE) (patients with rHTN; Male, 2 mg): −22.4 (2.73)
SBP, LS mean difference (SE) (patients with rHTN; Male, 2 mg vs placebo): −16.4 (3.63)
SBP, LS mean change (SE) (patients with rHTN; Not Hispanic/Latino, 0.5 mg): −10.9 (2.72)
SBP, LS mean difference (SE) (patients with rHTN; Not Hispanic/Latino, 0.5 mg vs placebo): −3.1 (3.75)
SBP, LS mean change (SE) (patients with rHTN; Not Hispanic/Latino, 1 mg): −17.9 (2.41)
SBP, LS mean difference (SE) (patients with rHTN; Not Hispanic/Latino, 1 mg vs placebo): −10.0 (3.52)
SBP, LS mean change (SE) (patients with rHTN; Not Hispanic/Latino, 2 mg): −19.2 (2.86)
SBP, LS mean difference (SE) (patients with rHTN; Not Hispanic/Latino, 2 mg vs placebo): −11.4 (3.84)
SBP, LS mean change (SE) (patients with rHTN; Other (not Hispanic/Latino Female), 0.5 mg): −11.1 (2.11)
SBP, LS mean difference (SE) (patients with rHTN; Other (not Hispanic/Latino Female), 0.5 mg vs placebo): −4.0 (2.99)
SBP, LS mean change (SE) (patients with rHTN; Other (not Hispanic/Latino Female), 1 mg): −18.7 (2.13)
SBP, LS mean difference (SE) (patients with rHTN; Other (not Hispanic/Latino Female), 1 mg vs placebo): −11.6 (3.00)
SBP, LS mean change (SE) (patients with rHTN; Other (not Hispanic/Latino Female), 2 mg): −20.9 (2.45)
SBP, LS mean difference (SE) (patients with rHTN; Other (not Hispanic/Latino Female), 2 mg vs placebo): −13.8 (3.24)
systolic and diastolic blood pressure (patients with rHTN; patients with resistant hypertension, FIGS. 10A and 10B): dose-dependent decreases
SBP reduction by subgroup (patients with rHTN; subgroup analyses, baseline to Day 85): greater reduction in SBP if they were male, white, not Hispanic or Latino, higher eGFR, and baseline SBP value of ≥145 mmHg
